Reference: PubChem BioAssay (NCI)
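1) Cells in 96-well plates. 2) Compound, 48 h, 5 concentrations. 3) Linear interpolation between surrounding doses. 4) Unreached endpoint = highest concentration. The concentration for 50% growth inhibition is given as GI50. TGI is the concentration that stops growth completely.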

Key:
Assay in all cases: NCI tumour cell line growth inhibition, 48 h
HS 578T breast = test system: HS 578T breast
SW-620 colon = test system: SW-620 colon
HCC-2998 colon = test system: HCC-2998 colon
T-47D breast = test system: T-47D breast
NCI-H522 lung = test system: NCI-H522 lung
MDA-MB-435 = test system: MDA-MB-435
A498 renal = test system: A498 renal
SN12C renal = test system: SN12C renal
MCF7 breast = test system: MCF7 breast
SK-OV-3 ovarian = test system: SK-OV-3 ovarian
MDA-MB-231 breast = test system: MDA-MB-231 breast
HT29 colon = test system: HT29 colon
TK-10 renal = test system: TK-10 renal
UACC-257 melanoma = test system: UACC-257 melanoma
EKVX NSCLC = test system: EKVX NSCLC
LOX IMVI melanoma = test system: LOX IMVI melanoma
UACC-62 melanoma = test system: UACC-62 melanoma
SK-MEL-5 melanoma = test system: SK-MEL-5 melanoma
SNB-19 CNS = test system: SNB-19 CNS
SF-268 CNS = test system: SF-268 CNS
A549 NSCLC = test system: A549 NSCLC
COLO 205 colon = test system: COLO 205 colon
KM12 colon = test system: KM12 colon
NCI/ADR-RES ovarian = test system: NCI/ADR-RES ovarian
SF-295 CNS = test system: SF-295 CNS
RXF 393 renal = test system: RXF 393 renal
M14 melanoma = test system: M14 melanoma
IGROV1 ovarian = test system: IGROV1 ovarian
PC-3 prostate = test system: PC-3 prostate
HCT-116 colon = test system: HCT-116 colon
U251 CNS = test system: U251 CNS
NCI-H226 lung = test system: NCI-H226 lung
SK-MEL-28 melanoma = test system: SK-MEL-28 melanoma
CCRF-CEM leukemia = test system: CCRF-CEM leukemia
SK-MEL-2 melanoma = test system: SK-MEL-2 melanoma
ACHN renal = test system: ACHN renal
MALME-3M melanoma = test system: MALME-3M melanoma
DU-145 prostate = test system: DU-145 prostate
BT-549 breast = test system: BT-549 breast
MOLT-4 leukemia = test system: MOLT-4 leukemia
SNB-75 CNS = test system: SNB-75 CNS
HOP-92 NSCLC = test system: HOP-92 NSCLC
CAKI-1 renal = test system: CAKI-1 renal
SF-539 CNS = test system: SF-539 CNS
OVCAR-5 ovarian = test system: OVCAR-5 ovarian
786-0 renal = test system: 786-0 renal
NCI-H23 lung = test system: NCI-H23 lung
HOP-62 NSCLC = test system: HOP-62 NSCLC
NCI-H460 lung = test system: NCI-H460 lung
HL-60(TB) leukemia = test system: HL-60(TB) leukemia
HCT-15 colon = test system: HCT-15 colon
UO-31 renal = test system: UO-31 renal
OVCAR-4 ovarian = test system: OVCAR-4 ovarian
OVCAR-8 ovarian = test system: OVCAR-8 ovarian

`CCCCCCNC(=O)Oc1ccc(/C(=C(/C)c2ccc(Cl)cc2)c2ccc(OCCN3CCCC3)cc2)cc1` showed a GI50 (HS 578T breast) of 1660 nM, a TGI (HS 578T breast) of 3590 nM and a GI50 (SW-620 colon) of 1670 nM. For the same compound, the TGI (SW-620 colon) was 3130 nM, the GI50 (HCC-2998 colon) was 1650 nM and the TGI (HCC-2998 colon) was 3050 nM. The GI50 (T-47D breast) was 1310 nM, the TGI (T-47D breast) was 2880 nM and the GI50 (NCI-H522 lung) was 1780 nM. The TGI (NCI-H522 lung) was 3370 nM, the GI50 (MDA-MB-435) was 1790 nM and the TGI (MDA-MB-435) was 3250 nM. For the same compound, the GI50 (A498 renal) was 3930 nM, the TGI (A498 renal) was 17000 nM and the GI50 (SN12C renal) was 1730 nM. The TGI (SN12C renal) was 3200 nM, the GI50 (MCF7 breast) was 52.5 nM and the TGI (MCF7 breast) was 1970 nM. The GI50 (SK-OV-3 ovarian) was 1630 nM, the TGI (SK-OV-3 ovarian) was 3010 nM and the GI50 (MDA-MB-231 breast) was 1730 nM. The TGI (MDA-MB-231 breast) was 3220 nM, the GI50 (HT29 colon) was 1620 nM and the TGI (HT29 colon) was 3190 nM. It also gave a GI50 (TK-10 renal) of 1620 nM, a TGI (TK-10 renal) of 3140 nM and a GI50 (UACC-257 melanoma) of 1740 nM. The TGI (UACC-257 melanoma) was 3240 nM, the GI50 (EKVX NSCLC) was 2180 nM and the TGI (EKVX NSCLC) was 6120 nM. It also gave a GI50 (LOX IMVI melanoma) of 1590 nM, a TGI (LOX IMVI melanoma) of 2950 nM and a GI50 (UACC-62 melanoma) of 1750 nM. The TGI (UACC-62 melanoma) was 3220 nM, the GI50 (SK-MEL-5 melanoma) was 1720 nM and the TGI (SK-MEL-5 melanoma) was 3150 nM. The GI50 (SNB-19 CNS) was 1850 nM, the TGI (SNB-19 CNS) was 3590 nM and the GI50 (SF-268 CNS) was 1770 nM. The TGI (SF-268 CNS) was 3720 nM, the GI50 (A549 NSCLC) was 1630 nM and the TGI (A549 NSCLC) was 3070 nM. It also gave a GI50 (COLO 205 colon) of 1860 nM, a TGI (COLO 205 colon) of 3360 nM and a GI50 (KM12 colon) of 1980 nM. It also gave a TGI (KM12 colon) of 3740 nM, a GI50 (NCI/ADR-RES ovarian) of 1680 nM and a TGI (NCI/ADR-RES ovarian) of 3300 nM. For the same compound, the GI50 (SF-295 CNS) was 1730 nM, the TGI (SF-295 CNS) was 3170 nM and the GI50 (RXF 393 renal) was 1700 nM. For the same compound, the TGI (RXF 393 renal) was 3260 nM, the GI50 (M14 melanoma) was 1720 nM and the TGI (M14 melanoma) was 3180 nM. The GI50 (IGROV1 ovarian) was 1740 nM, the TGI (IGROV1 ovarian) was 3280 nM and the GI50 (PC-3 prostate) was 1520 nM. For the same compound, the TGI (PC-3 prostate) was 2950 nM, the GI50 (HCT-116 colon) was 1510 nM and the TGI (HCT-116 colon) was 3100 nM. The GI50 (U251 CNS) was 1540 nM, the TGI (U251 CNS) was 2930 nM and the GI50 (NCI-H226 lung) was 2020 nM. It also gave a TGI (NCI-H226 lung) of 4470 nM, a GI50 (SK-MEL-28 melanoma) of 1720 nM and a TGI (SK-MEL-28 melanoma) of 3160 nM. It also gave a GI50 (CCRF-CEM leukemia) of 1780 nM, a TGI (CCRF-CEM leukemia) of 4980 nM and a GI50 (SK-MEL-2 melanoma) of 1890 nM. For the same compound, the TGI (SK-MEL-2 melanoma) was 3510 nM, the GI50 (ACHN renal) was 1710 nM and the TGI (ACHN renal) was 3080 nM. It also gave a GI50 (MALME-3M melanoma) of 1710 nM, a TGI (MALME-3M melanoma) of 3240 nM and a GI50 (DU-145 prostate) of 1920 nM. The TGI (DU-145 prostate) was 3460 nM, the GI50 (BT-549 breast) was 1700 nM and the TGI (BT-549 breast) was 3200 nM. For the same compound, the GI50 (MOLT-4 leukemia) was 1730 nM, the TGI (MOLT-4 leukemia) was 3970 nM and the GI50 (SNB-75 CNS) was 1790 nM. For the same compound, the TGI (SNB-75 CNS) was 8970 nM, the GI50 (HOP-92 NSCLC) was 1160 nM and the TGI (HOP-92 NSCLC) was 2420 nM. It also gave a GI50 (CAKI-1 renal) of 1480 nM, a TGI (CAKI-1 renal) of 2820 nM and a GI50 (SF-539 CNS) of 1710 nM. It also gave a TGI (SF-539 CNS) of 3120 nM, a GI50 (OVCAR-5 ovarian) of 2730 nM and a TGI (OVCAR-5 ovarian) of 10100 nM. For the same compound, the GI50 (786-0 renal) was 1780 nM, the TGI (786-0 renal) was 3290 nM and the GI50 (NCI-H23 lung) was 1780 nM. For the same compound, the TGI (NCI-H23 lung) was 3310 nM, the GI50 (HOP-62 NSCLC) was 1550 nM and the TGI (HOP-62 NSCLC) was 2950 nM. It also gave a GI50 (NCI-H460 lung) of 1760 nM, a TGI (NCI-H460 lung) of 3200 nM and a GI50 (HL-60(TB) leukemia) of 1630 nM. For the same compound, the TGI (HL-60(TB) leukemia) was 3740 nM, the GI50 (HCT-15 colon) was 1500 nM and the TGI (HCT-15 colon) was 3000 nM. For the same compound, the GI50 (UO-31 renal) was 1240 nM, the TGI (UO-31 renal) was 2520 nM and the GI50 (OVCAR-4 ovarian) was 1840 nM. The TGI (OVCAR-4 ovarian) was 3750 nM, the GI50 (OVCAR-8 ovarian) was 1720 nM and the TGI (OVCAR-8 ovarian) was 3360 nM.
